Data: the NIST ThermoML archive (doi:10.1007/s10765-011-1052-5)
Values joined by “and” are separate entries in the source; they are usually repeats but may differ in a detail not shown here. Identical values can stand only once. ± gives the expanded uncertainty stated by the source.

Settings: Fluid (supercritical or subcritical phases), Hot wire method

[HH] [hydrogen]
thermal conductivity (323.19 K, 5191 kPa): 0.2032 ± 0.0045 W/m/K
thermal conductivity (323.19 K, 5193 kPa): 0.2032 ± 0.0045 W/m/K
thermal conductivity (323.19 K, 10094 kPa): 0.2067 ± 0.0046 W/m/K
thermal conductivity (323.19 K, 10100 kPa): 0.2065 ± 0.0046 W/m/K
thermal conductivity (323.2 K, 261 kPa): 0.1971 ± 0.0044 W/m/K and 0.197 ± 0.0044 W/m/K
thermal conductivity (323.2 K, 266 kPa): 0.1971 ± 0.0044 W/m/K
thermal conductivity (323.2 K, 267 kPa): 0.1973 ± 0.0044 W/m/K
thermal conductivity (323.2 K, 5186 kPa): 0.2029 ± 0.0045 W/m/K
thermal conductivity (323.2 K, 5188 kPa): 0.2031 ± 0.0045 W/m/K
thermal conductivity (323.2 K, 5190 kPa): 0.2031 ± 0.0045 W/m/K
thermal conductivity (323.2 K, 10084 kPa): 0.2067 ± 0.0046 W/m/K
thermal conductivity (323.2 K, 10087 kPa): 0.2067 ± 0.0046 W/m/K
thermal conductivity (323.2 K, 10095 kPa): 0.2065 ± 0.0046 W/m/K
thermal conductivity (323.2 K, 19987 kPa): 0.2147 ± 0.0048 W/m/K
thermal conductivity (323.2 K, 19989 kPa): 0.2142 ± 0.0048 W/m/K
thermal conductivity (323.2 K, 19998 kPa): 0.2146 ± 0.0048 W/m/K
thermal conductivity (323.2 K, 20000 kPa): 0.2142 ± 0.0048 W/m/K
thermal conductivity (323.2 K, 39984 kPa): 0.2311 ± 0.0051 W/m/K
thermal conductivity (323.2 K, 39993 kPa): 0.2306 ± 0.0051 W/m/K
thermal conductivity (323.2 K, 40006 kPa): 0.2312 ± 0.0051 W/m/K
thermal conductivity (323.2 K, 40011 kPa): 0.2304 ± 0.0051 W/m/K
thermal conductivity (323.2 K, 40020 kPa): 0.2313 ± 0.0052 W/m/K
thermal conductivity (323.2 K, 59948 kPa): 0.2488 ± 0.0055 W/m/K
thermal conductivity (323.2 K, 59968 kPa): 0.2483 ± 0.0055 W/m/K
thermal conductivity (323.2 K, 59985 kPa): 0.2488 ± 0.0055 W/m/K
thermal conductivity (323.2 K, 59986 kPa): 0.2482 ± 0.0055 W/m/K
thermal conductivity (323.2 K, 79963 kPa): 0.2659 ± 0.0059 W/m/K
thermal conductivity (323.2 K, 79984 kPa): 0.2654 ± 0.0059 W/m/K
thermal conductivity (323.2 K, 80001 kPa): 0.2659 ± 0.0059 W/m/K
thermal conductivity (323.2 K, 80012 kPa): 0.2648 ± 0.0059 W/m/K
thermal conductivity (323.2 K, 80034 kPa): 0.2657 ± 0.0059 W/m/K
thermal conductivity (323.2 K, 97707 kPa): 0.2804 ± 0.0062 W/m/K
thermal conductivity (323.2 K, 97716 kPa): 0.282 ± 0.0063 W/m/K
thermal conductivity (323.2 K, 97745 kPa): 0.2813 ± 0.0063 W/m/K
thermal conductivity (323.2 K, 97753 kPa): 0.2816 ± 0.0063 W/m/K
thermal conductivity (323.2 K, 97762 kPa): 0.2814 ± 0.0063 W/m/K
thermal conductivity (323.21 K, 19980 kPa): 0.2147 ± 0.0048 W/m/K
thermal conductivity (323.21 K, 59935 kPa): 0.2488 ± 0.0055 W/m/K
thermal conductivity (373.22 K, 598 kPa): 0.2223 ± 0.005 W/m/K and 0.2224 ± 0.005 W/m/K
thermal conductivity (373.22 K, 599 kPa): 0.2225 ± 0.005 W/m/K
thermal conductivity (373.22 K, 5170 kPa): 0.2262 ± 0.005 W/m/K and 0.226 ± 0.005 W/m/K and 0.2261 ± 0.005 W/m/K
thermal conductivity (373.22 K, 70084 kPa): 0.2757 ± 0.0061 W/m/K and 0.2758 ± 0.0061 W/m/K
thermal conductivity (373.22 K, 70086 kPa): 0.2758 ± 0.0061 W/m/K
thermal conductivity (373.22 K, 98187 kPa): 0.2983 ± 0.0066 W/m/K
thermal conductivity (373.22 K, 98197 kPa): 0.2988 ± 0.0066 W/m/K
thermal conductivity (373.23 K, 599 kPa): 0.2224 ± 0.005 W/m/K
thermal conductivity (373.23 K, 4315 kPa): 0.2265 ± 0.005 W/m/K
thermal conductivity (373.23 K, 4316 kPa): 0.2258 ± 0.005 W/m/K and 0.2256 ± 0.005 W/m/K
thermal conductivity (373.23 K, 5171 kPa): 0.2262 ± 0.005 W/m/K
thermal conductivity (373.23 K, 10126 kPa): 0.2289 ± 0.0051 W/m/K
thermal conductivity (373.23 K, 10127 kPa): 0.2291 ± 0.0051 W/m/K
thermal conductivity (373.23 K, 10219 kPa): 0.2296 ± 0.0051 W/m/K and 0.2295 ± 0.0051 W/m/K and 0.2298 ± 0.0051 W/m/K
thermal conductivity (373.23 K, 30052 kPa): 0.2428 ± 0.0054 W/m/K and 0.2427 ± 0.0054 W/m/K
thermal conductivity (373.23 K, 30053 kPa): 0.2422 ± 0.0054 W/m/K
thermal conductivity (373.23 K, 30119 kPa): 0.2438 ± 0.0054 W/m/K
thermal conductivity (373.23 K, 30120 kPa): 0.2437 ± 0.0054 W/m/K and 0.2433 ± 0.0054 W/m/K
thermal conductivity (373.23 K, 30122 kPa): 0.2432 ± 0.0054 W/m/K
thermal conductivity (373.23 K, 49936 kPa): 0.2599 ± 0.0058 W/m/K and 0.2582 ± 0.0057 W/m/K and 0.2587 ± 0.0058 W/m/K
thermal conductivity (373.23 K, 50144 kPa): 0.2589 ± 0.0058 W/m/K and 0.2588 ± 0.0058 W/m/K
thermal conductivity (373.23 K, 69997 kPa): 0.2756 ± 0.0061 W/m/K
thermal conductivity (373.23 K, 69998 kPa): 0.2753 ± 0.0061 W/m/K and 0.2751 ± 0.0061 W/m/K
thermal conductivity (373.23 K, 97555 kPa): 0.3001 ± 0.0067 W/m/K
thermal conductivity (373.23 K, 97558 kPa): 0.2995 ± 0.0067 W/m/K
thermal conductivity (373.23 K, 97560 kPa): 0.2989 ± 0.0067 W/m/K
thermal conductivity (373.23 K, 98190 kPa): 0.2987 ± 0.0066 W/m/K
thermal conductivity (373.23 K, 98193 kPa): 0.2983 ± 0.0066 W/m/K
thermal conductivity (373.24 K, 10126 kPa): 0.2296 ± 0.0051 W/m/K
thermal conductivity (423.25 K, 5114 kPa): 0.2475 ± 0.0055 W/m/K
thermal conductivity (423.25 K, 10105 kPa): 0.2494 ± 0.0056 W/m/K and 0.2502 ± 0.0056 W/m/K
thermal conductivity (423.25 K, 30087 kPa): 0.262 ± 0.0058 W/m/K and 0.2619 ± 0.0058 W/m/K and 0.2615 ± 0.0058 W/m/K
thermal conductivity (423.25 K, 50102 kPa): 0.2764 ± 0.0062 W/m/K
thermal conductivity (423.25 K, 70147 kPa): 0.2939 ± 0.0065 W/m/K
thermal conductivity (423.25 K, 70150 kPa): 0.2927 ± 0.0065 W/m/K
thermal conductivity (423.25 K, 70155 kPa): 0.2923 ± 0.0065 W/m/K
thermal conductivity (423.25 K, 96975 kPa): 0.314 ± 0.007 W/m/K
thermal conductivity (423.25 K, 96978 kPa): 0.3137 ± 0.007 W/m/K
thermal conductivity (423.25 K, 96980 kPa): 0.3142 ± 0.007 W/m/K
thermal conductivity (423.26 K, 403 kPa): 0.2426 ± 0.0054 W/m/K
thermal conductivity (423.26 K, 404 kPa): 0.2418 ± 0.0054 W/m/K
thermal conductivity (423.26 K, 5113 kPa): 0.2477 ± 0.0055 W/m/K
thermal conductivity (423.26 K, 5114 kPa): 0.2476 ± 0.0055 W/m/K
thermal conductivity (423.26 K, 10104 kPa): 0.2499 ± 0.0056 W/m/K
thermal conductivity (423.26 K, 50100 kPa): 0.2771 ± 0.0062 W/m/K and 0.2762 ± 0.0061 W/m/K
thermal conductivity (423.27 K, 400 kPa): 0.2421 ± 0.0054 W/m/K
